molecular target: T1, Autotaxin enzyme (ATX) (Homo sapiens, UniProt Q13822); assay: In vitro ATX assay (enzymatic ATX inhibition, LPC 14:0 substrate, choline oxidase/HRP absorbance readout); format: biochemical; details: 0.3 mM LPC 14:0, 37° C., 4 hours, absorbance 555 nm
T1 construct: purchased Echelon Biosciences, Inc. E-4000
Experimental: • Assay buffer: 100 mM Tris-HCl, pH 9.0, 500 mM NaCl, 5 mM MgCl2, 30 μM CoCl2, 0.05% Triton X-100 • Assay buffer II: 4.5 mM 4-AAP, 2.7 mM TOOS, 21.2 U/mL HRP, 3 U/mL CO, In 50 mM Tris-HCl pH 8.0, 4.5 mM MgCl2
A compound preparation plate (Nunc 249944) was prepared by adding 30 mM stock solution (in DMSO) of test compound and performing a serial full-log dilution down to 30 nM. Two μL/well were transferred from the first compound prep plate to a compound dilution plate (Corning, 3641) and 198 μL assay buffer I was added for a […].
A 10 ng/mL solution of ATX was prepared by diluting in assay buffer I, and 80 μL/well were added to the assay plate (Corning, 3641); negative control wells contained 80 μL/well assay buffer I only (no ATX). Ten μL/well from the compound dilution plate (containing serially diluted test compound or DMSO) were added to the assay plate, which was then incubated at 37° C. for 15 minutes. A solution of LPC 14:0 was prepared in assay buffer I at 3 mM and 10 μl/well were added to the assay plate, for a final concentration of 0.3 mM LPC, and returned to 37° C. incubator for 4 hours. After 4 hour incubation, 100 μL/well of assay buffer II was added to all wells of the assay plate. The plate was incubated at RT for 15 minutes, prior to reading on FlexStation in absorbance mode, 555 nm. Results in the enzymatic ATX inhibition assay are provided for compounds of formula (I). An IC50 value of “A” is less than 100 nM, “B” is equal to or greater than 100 nM but less than 1 μM, “C” is equal to or greater than 1 μM.

SMILES | IC50 [nM]
CC(C)c1cc(CNc2ncc(C(=O)N3CCC3C)cn2)cc(OC(F)(F)F)c1 (single isomer, unassigned) [Example 69, (2-((3-Isopropyl-5-(trifluoromethoxy)benzyl)amino)pyrimidin-5-yl)(2-methylazetidin-1-yl)methanone] | < 100
CC(C)c1cc(CNc2ncc(C(=O)N3CCC3C)cn2)cc(OC(F)(F)F)c1 (single isomer, unassigned) [Example 70, (2-((3-Isopropyl-5-(trifluoromethoxy)benzyl)amino)pyrimidin-5-yl)(2-methylazetidin-1-yl)methanone] | < 100
O=C(c1cnc(NCc2cc(OC(F)(F)F)cc(C3CC3)c2)nc1)N1CCC12CCOC2 (single isomer, unassigned) [Example 116, (2-((3-Cyclopropyl-5-(trifluoromethoxy)-benzyl)amino)pyrimidin-5-yl)(6-oxa-1-azaspiro[3.4]octan-1-yl) methanone] | < 100
O=C(c1cnc(NCc2cc(OC(F)(F)F)cc(C3CC3)c2)nc1)N1CCC12CCOC2 (single isomer, unassigned) [Example 117, (2-((3-Cyclopropyl-5-(trifluoromethoxy)-benzyl)amino)pyrimidin-5-yl)(6-oxa-1-azaspiro[3.4]octan-1-yl) methanone] | < 100
CC1CC(C)N1C(=O)c1cnc(NCc2cc(OC(F)(F)F)cc(C3CC3)c2)nc1 (single isomer, unassigned) [Example 118, (2-((3-Cyclopropyl-5-(trifluoromethoxy)-benzyl)amino)pyrimidin-5-yl)(2,4-dimethylazetidin-1-yl)methanone] | < 100
CC1CC(C)N1C(=O)c1cnc(NCc2cc(OC(F)(F)F)cc(C3CC3)c2)nc1 (single isomer, unassigned) [Example 119, (2-((3-Cyclopropyl-5-(trifluoromethoxy)-benzyl)amino)pyrimidin-5-yl)(2,4-dimethylazetidin-1-yl)methanone] | ≥ 1000
CC1CC(C)N1C(=O)c1cnc(NCc2cc(OC(F)(F)F)cc(C3CC3)c2)nc1 (single isomer, unassigned) [Example 120, (2-((3-Cyclopropyl-5-(trifluoromethoxy)-benzyl)amino)pyrimidin-5-yl)(2,4-dimethylazetidin-1-yl)methanone] | < 100
O=C(c1cnc(NCc2cc(OC(F)(F)F)cc(C3CC3)c2)nc1)N1CCC12CCCOC2 (single isomer, unassigned) [Example 121, (2-((3-Cyclopropyl-5-(trifluoromethoxy)benzyl)amino)-pyrimidin-5-yl)(6-oxa-1-azaspiro[3.5]nonan-1-yl)methanone] | < 100
O=C(c1cnc(NCc2cc(OC(F)(F)F)cc(C3CC3)c2)nc1)N1CCC12CCCOC2 (single isomer, unassigned) [Example 122, (2-((3-Cyclopropyl-5-(trifluoromethoxy)benzyl)amino)-pyrimidin-5-yl)(6-oxa-1-azaspiro[3.5]nonan-1-yl)methanone] | < 100
CC(C)c1cc(CNc2ncc(C(=O)N3CCC34COC4)cn2)cc(OC(F)(F)F)c1 [Example 1, (2-((3-Isopropyl-5-(trifluoromethoxy)benzyl)amino)pyrimidin-5-yl) (6-oxa-1-azaspiro[3.3]heptan-1-yl)methanone] | < 100
O=C(c1cnc(NCc2cccc(OC(F)(F)F)c2)nc1)N1CCC12COC2 [Example 2] | 100 to 1000
O=C(c1cnc(NCc2cccc(OC(F)(F)F)c2)nc1)N1CC2(COC2)C1 [Example 3] | ≥ 1000
CC(C)(C)c1cc(CNc2ncc(C(=O)N3CCC34COC4)cn2)cc(OC(F)(F)F)c1 [Example 4] | < 100
CC1CCN1C(=O)c1cnc(NCc2cc(OC(F)(F)F)cc(C(C)(C)C)c2)nc1 (centres unmarked) [Example 5] | 100 to 1000
CC(C)c1cc(CNc2ncc(C(=O)N3CCC3C)cn2)cc(OC(F)(F)F)c1 (centres unmarked) [Example 6] | < 100
O=C(c1cnc(NC2Cc3ccccc3C2)nc1)N1CCC12COC2 [Example 7] | 100 to 1000
O=C(c1cnc(NC2Cc3ccccc3C2)nc1)N1CCC1 [Example 8] | 100 to 1000
CC1CCN1C(=O)c1cnc(NCc2cc(C(F)(F)F)cc(C(F)(F)F)c2)nc1 (centres unmarked) [Example 9] | 100 to 1000
CC1CCN1C(=O)c1cnc(NCc2cc(Cl)cc(Cl)c2)nc1 (centres unmarked) [Example 10] | 100 to 1000
COc1cc(CNc2ncc(C(=O)N3CCC3C)cn2)cc(OC)c1 (centres unmarked) [Example 11] | ≥ 1000

SMILES | IC50 [nM]
Cc1cc(CNc2ncc(C(=O)N3CCC3C)cn2)cc(OC(F)(F)F)c1 (centres unmarked) [Example 12] | 100 to 1000
CC(Nc1ncc(C(=O)N2CCC23COC3)cn1)c1cccc(OC(F)(F)F)c1 (centres unmarked) [Example 13] | ≥ 1000
N#Cc1cccc(CNc2ncc(C(=O)N3CCC34COC4)cn2)c1 [Example 14] | ≥ 1000
O=C(c1cnc(NCc2cccc(Cl)c2)nc1)N1CCC12COC2 [Example 15] | ≥ 1000
CS(=O)(=O)c1cccc(CNc2ncc(C(=O)N3CCC34COC4)cn2)c1 [Example 16] | ≥ 1000
O=C(c1cnc(NCc2cccc(OC(F)F)c2)nc1)N1CCC12COC2 [Example 17] | ≥ 1000
O=C(c1cnc(NCc2cccc(C(F)F)c2)nc1)N1CCC12COC2 [Example 18] | ≥ 1000
CC(C)c1cc(CNc2ncc(C(=O)N3CCC34COC4)cn2)cc(S(F)(F)(F)(F)F)c1 [Example 19] | 100 to 1000
O=C(c1cnc(NCc2cccc(C(F)(F)F)c2)nc1)N1CCC12COC2 [Example 20] | ≥ 1000
CC(C)c1cc(CNc2ncc(C(=O)N3CCCC3)cn2)cc(OC(F)(F)F)c1 [Example 21] | < 100
CC(C)c1cc(CNc2ncc(C(=O)N3CCCCC3)cn2)cc(OC(F)(F)F)c1 [Example 22] | 100 to 1000
O=C(c1cnc(NCc2cc(OC(F)(F)F)cc(C3CCC3)c2)nc1)N1CCC12COC2 [Example 23] | < 100
O=C(c1cnc(NCc2cccc(S(F)(F)(F)(F)F)c2)nc1)N1CCC12COC2 [Example 24] | 100 to 1000
O=C(c1cnc(NCc2cc(Br)cc(OC(F)(F)F)c2)nc1)N1CCC12COC2 [Example 25] | < 100
O=C(c1cnc(NCc2cc(F)cc(OC(F)(F)F)c2)nc1)N1CCC12COC2 [Example 26] | 100 to 1000
O=C(c1cnc(NCc2cc(OCC3CC3)cc(OC(F)(F)F)c2)nc1)N1CCC12COC2 [Example 27] | < 100
CC(C)Oc1cc(CNc2ncc(C(=O)N3CCC34COC4)cn2)cc(OC(F)(F)F)c1 [Example 28] | < 100
COc1cc(CNc2ncc(C(=O)N3CCC34COC4)cn2)cc(OC(F)(F)F)c1 [Example 30] | 100 to 1000
CCOc1cc(CNc2ncc(C(=O)N3CCC34COC4)cn2)cc(OC(F)(F)F)c1 [Example 31] | < 100
COc1ccc2c(c1)CC(Nc1ncc(C(=O)N3CCC34COC4)cn1)C2 (centres unmarked) [Example 32] | 100 to 1000

SMILES | IC50 [nM]
O=C(c1cnc(NC2Cc3ccc(Cl)cc3C2)nc1)N1CCC12COC2 (centres unmarked) [Example 33] | < 100
N#Cc1ccc2c(c1)CC(Nc1ncc(C(=O)N3CCC34COC4)cn1)C2 (centres unmarked) [Example 34] | 100 to 1000
O=C(c1cnc(NCc2cc(OCC(F)(F)F)cc(OC(F)(F)F)c2)nc1)N1CCC12COC2 [Example 35] | < 100
O=C(c1cnc(NCc2cc(C3CC3)cc(C(F)(F)F)c2)nc1)N1CCC12COC2 [Example 36] | < 100
O=C(c1cnc(NCc2cc(C3CC3)cc(C3CC3)c2)nc1)N1CCC12COC2 [Example 37] | < 100
CC(C)Oc1cc(CNc2ncc(C(=O)N3CCC34COC4)cn2)cc(C2CC2)c1 [Example 38] | < 100
CCCc1cc(CNc2ncc(C(=O)N3CCC34COC4)cn2)cc(OC(C)C)c1 [Example 39] | < 100
CN1CCC2(CC1)CCN2C(=O)c1cnc(NC2Cc3ccc(Cl)cc3C2)nc1 (centres unmarked) [Example 40] | < 100
CC1(C)CCN1C(=O)c1cnc(NC2Cc3ccc(Cl)cc3C2)nc1 (centres unmarked) [Example 41] | < 100
O=C(c1cnc(NC2Cc3ccc(F)cc3C2)nc1)N1CCC12COC2 (centres unmarked) [Example 42] | < 100
O=C(c1cnc(NC2Cc3ccc(Br)cc3C2)nc1)N1CCC12COC2 (centres unmarked) [Example 43] | < 100
CC1CCN1C(=O)c1cnc(NC2Cc3ccc(Cl)cc3C2)nc1 (centres unmarked) [Example 44] | < 100
O=C(c1cnc(NC2Cc3ccc(Cl)cc3C2)nc1)N1CCC1C(F)F (centres unmarked) [Example 45] | < 100
O=C(c1cnc(NC2Cc3ccc(Cl)cc3C2)nc1)N1CCCC12COC2 (centres unmarked) [Example 46] | < 100
O=C(c1cnc(NC2Cc3ccc(Cl)cc3C2)nc1)N1CCC12CCOCC2 (centres unmarked) [Example 47] | < 100
O=C(c1cnc(NC2Cc3ccc(Cl)cc3C2)nc1)N1CCC12CCCOC2 (centres unmarked) [Example 48] | < 100
O=C(c1cnc(NC2Cc3ccc(Cl)cc3C2)nc1)N1CCC12CS(=O)(=O)C2 (centres unmarked) [Example 49] | < 100
O=C(c1cnc(NCc2cc(Cl)cc(Cl)c2)nc1)N1CCC12COC2 [Example 50] | 100 to 1000
O=C(c1cnc(NCc2ccc(Cl)c(Cl)c2)nc1)N1CCC12COC2 [Example 51] | ≥ 1000

Reference: US20210363152A1, “AMINOAZINE AMIDES” (Hoffmann-La Roche Inc., priority 2018, published 2021)
